Measured values as given in patent US20210251972A1, “Methods Of Treating Fabry Disease” (Amicus Therapeutics, Inc., priority 2020, published 2021).

System: ERT-experienced patients with Fabry disease and migalastat-amenable GLA variants
Experiment: Composite clinical outcomes (CCOs) in ATTRACT (AT1001-012) and open-label extension studies AT1001-041/AT1001-042, Phase 3
Type: in vivo, human
Settings: for Incidence rate of composite clinical outcomes (CCOs): all patients; for Median time to first CCO: overall
Source text: Patients initiated ERT ≥12 months prior to the study.
AT1001-041 (NCT01458119) was a long-term OLE study evaluating the long-term safety and efficacy of migalastat in patients completing a previous migalastat study.
AT1001-042 (NCT02194985) is an ongoing, long-term OLE study evaluating the long-term safety and efficacy of migalastat in patients who participated in AT1001-012 or AT1001-041.
CCOs were defined prior to the planned analysis and included: • Renal events (a decrease in eGFRCKD-EPI≥15 mL/min/1.73 m^2, with the decreased eGFR<90 mL/min/1.73 m^2 relative to baseline; or an increase in 24-hour urine protein≥33%, with elevated protein≥300 mg relative to baseline) • Cardiac events (myocardial infarction; unstable cardiac angina; new symptomatic arrhythmia requiring antiarrhythmic medication, direct current cardioversion, pacemaker, or defibrillator implantation; congestive heart failure [New York Association Class III or IV]) • Cerebrovascular events (stroke or transient ischemic attack) • Death
Exposure to migalastat was calculated from the day of the first dose to the last available data point or the date of discontinuation; for this analysis, the exposure to ERT comprised the duration of participation in the ATTRACT study, and lasted up to 18 months.
Incidence rates were calculated for renal, cerebrovascular, and cardiac events separately and for the composite clinical outcomes. All individual events were accounted for when calculating incidence. Median times to the first clinical event were calculated based on the same data used for the incidence rates.
A direct comparison between migalastat and ERT was based on the 18 months exposure (the ERT data were from first 18 months in ATTRACT only); in addition, the incidence of CCOs for the whole follow-up period was calculated for migalastat (ATTRACT and subsequent OLE studies)
The long-term incidence for migalastat was calculated based on all available data for migalastat.

Row | Molecule | Incidence rate of composite clinical outcomes (CCOs) (first 18 months of treatment) [per patient·year] | Incidence rate, cardiac event (females, at 18 months) [per patient·year] | Incidence rate, cerebrovascular event (females, at 18 months) [per patient·year] | Incidence rate, composite clinical outcome (females, at 18 months) [per patient·year] | Incidence rate, death (females, at 18 months) [per patient·year] | Incidence rate, renal event (females, at 18 months) [per patient·year] | Incidence rate, cardiac event (males, at 18 months) [per patient·year] | Incidence rate, cerebrovascular event (males, at 18 months) [per patient·year] | Incidence rate, composite clinical outcome (males, at 18 months) [per patient·year] | Incidence rate, death (males, at 18 months) [per patient·year] | Incidence rate, renal event (males, at 18 months) [per patient·year] | further results
1 | Cl.OC[C@H]1NC[C@H](O)[C@@H](O)[C@H]1O [Migalastat, (2R,3S,4R,5S)-2-(hydroxymethyl) piperdine-3,4,5-triol] | 0.41 | 0.05 | 0 | 0.34 | 0 | 0.29 | 0.07 | 0 | 0.50 | 0 | 0.43 | Incidence rate of composite clinical outcomes (CCOs) (long-term follow-up, at the data cutoff (median 4.8 years)): 0.45 per patient·year; Median time to first composite clinical outcome (females, 0-4.8 years): 1.15 Years; Incidence rate, cardiac event (females, at 4.8 years): 0.02 per patient·year; Incidence rate, cerebrovascular event (females, at 4.8 years): 0.02 per patient·year; Incidence rate, death (females, at 4.8 years): 0 per patient·year; Incidence rate, renal event (females, at 4.8 years): 0.33 per patient·year; Incidence rate, composite clinical outcome (females, at 4.8 years (data cutoff)): 0.37 per patient·year; Median time to first composite clinical outcome (males, 0-4.8 years): 1.30 Years; Incidence rate, cardiac event (males, at 4.8 years): 0.04 per patient·year; Incidence rate, cerebrovascular event (males, at 4.8 years): 0.01 per patient·year; Incidence rate, death (males, at 4.8 years): 0 per patient·year; Incidence rate, renal event (males, at 4.8 years): 0.51 per patient·year; Incidence rate, composite clinical outcome (males, at 4.8 years (data cutoff)): 0.56 per patient·year; Median time to first CCO (migalastat exposure (0-4.8 years)): 1.17 years
2 | ERT: enzyme replacement therapy: infusion of purified α-Gal A, e.g. agalsidase alfa (Replagal) or agalsidase beta (Fabrazyme) (protein, UniProt P06280 32-429, looked up) Alpha-galactosidase A: LDNGLARTPTMGWLHWERFMCNLDCQEEPDSCISEKLFMEMAELMVSEGWKDAGYEYLCIDDCWMAPQRDSEGRLQADPQRFPHGIRQLANYVHSKGLKLGIYADVGNKTCAGFPGSFGYYDIDAQTFADWGVDLLKFDGCYCDSLENLADGYKHMSLALNRTGRSIVYSCEWPLYMWPFQKPNYTEIRQYCNHWRNFADIDDSWKSIKSILDWTSFNQERIVDVAGPGGWNDPDMLVIGNFGLSWNQQVTQMALWAIMAAPLFMSNDLRHISPQAKALLQDKDVIAINQDPLGKQGYQLRQGDNFEVWERPLSGLAWAVAMINRQEIGGPRSYTIAVASLGKGVACNPACFITQLLPVKRKLGFYEWTSRLRSHINPTGTVLLQLENTMQMSLKDLL | 0.85 | 0.42 | 0 | 0.98 | 0 | 0.56 | 0 | 0.10 | 0.68 | 0 | 0.58 | Median time to first composite clinical outcome (females, 0-18 months): 0.35 Years; Median time to first composite clinical outcome (males, 0-18 months): 0.25 Years; Median time to first CCO (ERT exposure (0-18 months)): 0.25 years
